Data taken from patent US10294202B2, “Pyrrolidinones as herbicides” (FMC Corporation, priority 2013, dated 2019).

Experiments:
johnsongrass = experiment: Test E preemergence herbicide test; type: in vivo, Sorghum halepense; parameters: key: 0 = no effect, 100 = complete control
Method in brief: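 Seeds sown in silt loam soil received preemergence treatment with compound in a non-phytotoxic solvent mixture containing surfactant. After 21 days in the greenhouse, plants were visually rated against untreated controls on a 0 (no effect) to 100 (complete control) scale.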

foxtail, green = experiment: Test E preemergence herbicide test; type: in vivo, Setaria viridis; parameters: key: 0 = no effect, 100 = complete control
Source text: (§1) Seeds of plant species selected from corn (Zea mays), soybean (Glycine max), velvetleaf (Abutilon theophrasti), lambsquarters (Chenopodium album), wild poinsettia (Euphorbia heterophylla), pigweed, palmer (palmer pigweed, Amaranthus palmeri), waterhemp (common waterhemp, Amaranthus rudis), surinam grass (Brachiaria decumbens), crabgrass, large (large crabgrass, Digitaria sanguinalis), crabgrass, Brazil (Brazilian crabgrass, Digitaria horizontalis), panicum, fall (fall panicum, Panicum dichotomiflorum), foxtail, giant (giant foxtail, Setaria faberii), foxtail, green (green foxtail, Setaria viridis), goosegrass (Eleusine indica), johnsongrass (Sorghum halepense), ragweed (common ragweed, Ambrosia elatior), barnyardgrass (Echinochloa crus-galli), sandbur (southern sandbur, Cenchrus echinatus), arrowleaf […] rhombifolia), ryegrass, Italian (Italian ryegrass, Lolium multiflorum), dayflower, VA (Virginia dayflower, Commelina virginica), field bindweed (Convolvulus arvensis), morningglory (Ipomoea coccinea), nightshade (eastern black nightshade, Solanum ptycanthum), kochia (Kochia scoparia), nutsedge, yellow (yellow nutsedge, Cyperus esculentus), cocklebur (common cocklebur, Xanthium strumarium), smartweed (ladysthumb smartweed, Polygonum Persicaria) and beggarticks (hairy beggarticks, Bidens pilosa), were planted into a silt loam soil and treated preemergence with test chemicals formulated in a non-phytotoxic solvent mixture which included a surfactant. Treated plants and controls were maintained in a greenhouse for 21 days, after which time all species were compared to controls and visually evaluated. Plant response ratings, summarized in Table E, are based on a scale of 0 to 100 where 0 is no effect and 100 is complete control. A dash (-) response means no test result.

radish, wild = experiment: Test D pre-/postemergence herbicide test; type: in vivo, Raphanus raphanistrum; conditions: for Plant response rating: Postemergence, Radish, Wild, scale 0 to 100; for Plant response rating, Radish, Wild: Preemergence, scale 0 to 100 (0 no effect, 100 complete control)
Method in brief: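 Plants were maintained 7 to 21 days in a controlled environment after treatment and then scored visually against controls (0 no effect, 100 complete control). Seeds in silt loam received preemergence sprays, and 1- to 4-leaf plants received postemergence sprays, both formulated in non-phytotoxic solvent with surfactant.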

ragweed = experiment: Test E preemergence herbicide test; type: in vivo, Ambrosia elatior; parameters: key: 0 = no effect, 100 = complete control
Source text: as §1

kochia = experiment: Test D pre-/postemergence herbicide test; type: in vivo, Kochia scoparia; conditions: for Plant response rating: Kochia, scale 0 to 100; for Plant response rating, Kochia: scale 0 to 100 (0 no effect, 100 complete control)
Source text: (§2) Seeds of plant species selected from bluegrass (annual bluegrass, Poa annua), blackgrass (Alopecurus myosuroides), canarygrass (littleseed canarygrass, Phalaris minor), chickweed (common chickweed, Stellaria media), galium (catchweed bedstraw, Galium aparine), bromegrass, downy (downy bromegrass, Bromus tectorum), field poppy (Papaver rhoeas), field violet (Viola arvensis), foxtail, green (green foxtail, Setaria viridis), deadnettle (henbit deadnettle, Lamium amplexicaule), ryegrass, Italian (Italian ryegrass, Lolium multiflorum), kochia (Kochia scoparia), lambsquarters (Chenopodium album), oilseed rape (Brassica napus), pigweed (Amaranthus retroflexus), chamomile (scentless chamomile, Matricaria inodora), Russian thistle (Salsola kali), speedwell (bird's-eye speedwell, Veronica persica), barley, spring (spring barley, Hordeum vulgare), wheat, spring (spring wheat, Triticum aestivum), buckwheat, wild (wild buckwheat, Polygonum convolvulus), mustard, wild (wild mustard, Sinapis arvensis), oat, wild (wild oat, Avena fatua), radish, wild (wild radish, Raphanus raphanistrum), […]), barley, winter (winter barley, Hordeum vulgare), and wheat, winter (winter wheat, Triticum aestivum) were planted into a silt loam soil and treated preemergence with test chemicals formulated in a non-phytotoxic solvent mixture which included a surfactant. At the same time, these species were planted in pots containing Redi-Earth® planting medium (Scotts Company, 14111 Scottslawn Road, Marysville, Ohio 43041) comprising spaghnum peat moss, vermiculite, wetting agent and starter nutrients and treated with postemergence applications of the test chemicals formulated in the same manner. Plants ranged in height from 2 to 18 cm (1- to 4-leaf stage). Treated plants and controls were maintained in a controlled growth environment for 7 to 21 days after which time all species were compared to controls and visually evaluated. Plant response ratings, summarized in Table D, are based on a scale of 0 to 100 where 0 is no effect and 100 is complete control. A dash (-) response means no test result.

chamomile = experiment: Test D pre-/postemergence herbicide test; type: in vivo, Matricaria inodora; conditions: for Plant response rating: Chamomile, scale 0 to 100; for Plant response rating, Chamomile: scale 0 to 100 (0 no effect, 100 complete control)
Source text: as §2

Row | SMILES | Plant response rating, Johnsongrass (johnsongrass; 31 g ai/ha) | Plant response rating, Johnsongrass (johnsongrass; 62 g ai/ha) | Plant response rating, Johnsongrass (johnsongrass; 125 g ai/ha) | Plant response rating, Johnsongrass (johnsongrass; 250 g ai/ha) | Plant response rating, Foxtail, Green (foxtail, green; 31 g ai/ha) | Plant response rating, Foxtail, Green (foxtail, green; 62 g ai/ha) | Plant response rating, Foxtail, Green (foxtail, green; 125 g ai/ha) | Plant response rating, Foxtail, Green (foxtail, green; 250 g ai/ha) | Plant response rating (radish, wild; 31 g ai/ha) | Plant response rating (radish, wild; 62 g ai/ha) | Plant response rating (radish, wild; 125 g ai/ha) | Plant response rating (radish, wild; 250 g ai/ha) | Plant response rating, Radish, Wild (radish, wild; 62 g ai/ha) | Plant response rating, Radish, Wild (radish, wild; 125 g ai/ha) | Plant response rating, Radish, Wild (radish, wild; 31 g ai/ha) | Plant response rating, Radish, Wild (radish, wild; 250 g ai/ha) | Plant response rating, Ragweed (ragweed; 31 g ai/ha) | Plant response rating, Ragweed (ragweed; 62 g ai/ha) | Plant response rating, Ragweed (ragweed; 125 g ai/ha) | Plant response rating, Ragweed (ragweed; 250 g ai/ha) | further results
1 | O=C1NCC(c2ccc(C(F)(F)F)cc2)C1C(=O)Nc1cccc(F)c1F (racemic) [Compound 202] | 0 | 0 | 20 | 25 | 10 | 75 | 98 | 98 | 50 | 70 | 75 | 70 | 0 | 0 | 0 | 80 | 20 | 80 | 85 | 90 | Plant response rating (kochia; Postemergence, 31 g ai/ha): 70; Plant response rating (kochia; Postemergence, 62 g ai/ha): 70; Plant response rating (kochia; Postemergence, 125 g ai/ha): 75; Plant response rating (kochia; Postemergence, 250 g ai/ha): 75; Plant response rating, Kochia (kochia; Preemergence, 62 g ai/ha): 85; Plant response rating, Kochia (kochia; Preemergence, 31 g ai/ha): 85; Plant response rating (kochia; Preemergence, 125 g ai/ha): 85; Plant response rating (kochia; Preemergence, 250 g ai/ha): 85; Plant response rating (chamomile; Postemergence, 31 g ai/ha): 5; Plant response rating (chamomile; Postemergence, 62 g ai/ha): 60; Plant response rating (chamomile; Postemergence, 125 g ai/ha): 65; Plant response rating (chamomile; Postemergence, 250 g ai/ha): 60; Plant response rating, Chamomile (chamomile; Preemergence, 62 g ai/ha): 65; Plant response rating, Chamomile (chamomile; Preemergence, 31 g ai/ha): 60; Plant response rating (chamomile; Preemergence, 125 g ai/ha): 75; Plant response rating (chamomile; Preemergence, 250 g ai/ha): 100
2 | O=C1NCC(c2ccc(C(F)(F)F)cc2)C1C(=O)Nc1cccc(F)c1F (centres unmarked) [Compound 80, N-(2,3-difluorophenyl)-2-oxo-4-[4-(trifluoromethyl)phenyl]-3-pyrrolidinecarboxamide] | 0 | 0 | 10 | 30 | 60 | 70 | 80 | 90 | 50 | 70 | 35 | 60 | 30 | 30 | 15 | 70 | 0 | 0 | 0 | 20 | Plant response rating, Johnsongrass (johnsongrass; 16 g ai/ha): 0; Plant response rating, Foxtail, Green (foxtail, green; 16 g ai/ha): 50; Plant response rating, Ragweed (ragweed; 16 g ai/ha): 0; Plant response rating (kochia; Postemergence, 31 g ai/ha): 65; Plant response rating (kochia; Postemergence, 62 g ai/ha): 75; Plant response rating (kochia; Postemergence, 125 g ai/ha): 70; Plant response rating (kochia; Postemergence, 250 g ai/ha): 75; Plant response rating, Kochia (kochia; Preemergence, 62 g ai/ha): 35; Plant response rating, Kochia (kochia; Preemergence, 31 g ai/ha): 15; Plant response rating (kochia; Preemergence, 125 g ai/ha): 70; Plant response rating (kochia; Preemergence, 250 g ai/ha): 75; Plant response rating (chamomile; Postemergence, 31 g ai/ha): 20; Plant response rating (chamomile; Postemergence, 62 g ai/ha): 30; Plant response rating (chamomile; Postemergence, 125 g ai/ha): 35; Plant response rating (chamomile; Postemergence, 250 g ai/ha): 50; Plant response rating, Chamomile (chamomile; Preemergence, 62 g ai/ha): 80; Plant response rating, Chamomile (chamomile; Preemergence, 31 g ai/ha): 80; Plant response rating (chamomile; Preemergence, 125 g ai/ha): 80; Plant response rating (chamomile; Preemergence, 250 g ai/ha): 85
3 | O=C1NCC(c2ccc(F)c(F)c2)C1C(=O)Nc1cccc(F)c1F (centres unmarked) [Compound 17, N-(2,3-difluorophenyl)-4-(3,4-difluorophenyl)-2-oxo-3-pyrrolidinecarboxamide] | 0 | 0 | 0 | 0 | 25 | 40 | 70 | 95 | 0 | 0 | 15 | 15 | – | – | – | – | 0 | 0 | 0 | 0 | Plant response rating, Johnsongrass (johnsongrass; 16 g ai/ha): 0; Plant response rating, Foxtail, Green (foxtail, green; 16 g ai/ha): 0; Plant response rating (radish, wild; 16 g ai/ha): 0; Plant response rating, Ragweed (ragweed; 16 g ai/ha): 0; Plant response rating (kochia; Postemergence, 16 g ai/ha): 0; Plant response rating (kochia; Postemergence, 31 g ai/ha): 0; Plant response rating (kochia; Postemergence, 62 g ai/ha): 20; Plant response rating (kochia; Postemergence, 125 g ai/ha): 20; Plant response rating (kochia; Postemergence, 250 g ai/ha): 40; Plant response rating (chamomile; Postemergence, 16 g ai/ha): 0; Plant response rating (chamomile; Postemergence, 31 g ai/ha): 0; Plant response rating (chamomile; Postemergence, 62 g ai/ha): 0; Plant response rating (chamomile; Postemergence, 125 g ai/ha): 0; Plant response rating (chamomile; Postemergence, 250 g ai/ha): 0
4 | O=C1NC[C@H](c2cccc(C(F)(F)F)c2)[C@H]1C(=O)Nc1ccccc1F [Compound 204, (3R,4S)—N-(2-fluorophenyl)-2-oxo-4-[3-(trifluoromethyl)phenyl]-3-pyrrolidinecarboxamide] | 0 | 0 | 35 | 40 | 40 | 98 | 95 | 98 | – | – | – | – | 0 | 0 | 0 | 0 | 0 | 0 | 0 | 0 | Plant response rating, Kochia (kochia; Preemergence, 62 g ai/ha): 45; Plant response rating, Kochia (kochia; Preemergence, 125 g ai/ha): 15; Plant response rating, Kochia (kochia; Preemergence, 31 g ai/ha): 20; Plant response rating (kochia; Preemergence, 250 g ai/ha): 70
